Values joined by “and” are separate entries in the source; they are usually repeats but may differ in a detail not shown here. Identical values can stand only once.
How the values were obtained:
Assay in all cases: microbe, parasite or virus in culture
[1] = tested on: T1, Staphylococcus aureus PB1505; parameters: Broth microdilution MIC in cation-adjusted MHB-Ca2+, growth inhibition per EUCAST reading; details: PB1505, 16 h
T1 construct: PB1505
Protocol: (§1) MICs were measured in cation-adjusted Mueller-Hinton broth (MHB) supplemented with 50 μg/mL CaCl2 (MHB-Ca^2+) via broth microdilution in 96-well plates with an inoculum of ∼5 × 10^5 CFU per mL. Antibiotic test concentrations ranged from 0.0625 μg/mL to 32 μg/mL by 2-fold dilutions. Plates were incubated at 37°C for 16 h without shaking, and results were interpreted in accordance with European Committee on Antimicrobial Susceptibility Testing reading guidelines ([72]). S. aureus ATCC 29213 was used as a quality-control strain. TCA cycle defects have been shown previously to cause antibiotic tolerance in laboratory strains of methicillin-sensitive S. aureus (MSSA) ([13], [16]). […] To test this hypothesis, we complemented three of the clinical isolates harboring loss-of-function citZ mutations with either wild-type citZ (pOS1-citZ) or empty vector (pOS1) and then measured bacterial survival through time after exposure to ceftaroline, daptomycin, vancomycin, or the combination of daptomycin plus ceftaroline (Fig. 3). These antibiotics were chosen for their clinical relevance in the treatment of severe MRSA infection.

[2] = tested on: T2, Staphylococcus aureus PB0115; parameters: Broth microdilution MIC in cation-adjusted MHB-Ca2+, growth inhibition per EUCAST reading; details: PB0115, 16 h
T2 construct: PB0115
Protocol: as §1

[3] = tested on: T3, Staphylococcus aureus PB1801; parameters: Broth microdilution MIC in cation-adjusted MHB-Ca2+, growth inhibition per EUCAST reading; details: PB1801, 16 h
T3 construct: PB1801
Protocol: as §1

[4] = tested on: T4, Staphylococcus aureus PB0203; parameters: Broth microdilution MIC in cation-adjusted MHB-Ca2+, growth inhibition per EUCAST reading; details: PB0203, 16 h
T4 construct: PB0203
Protocol: as §1

[5] = tested on: T5, Staphylococcus aureus PB0903; parameters: Broth microdilution MIC in cation-adjusted MHB-Ca2+, growth inhibition per EUCAST reading; details: PB0903, 16 h
T5 construct: PB0903
Protocol: as §1

[6] = tested on: T6, Staphylococcus aureus PB0704; parameters: Broth microdilution MIC in cation-adjusted MHB-Ca2+, growth inhibition per EUCAST reading; details: PB0704, 16 h
T6 construct: PB0704
Protocol: as §1

[7] = tested on: T7, Staphylococcus aureus PB0905; parameters: Broth microdilution MIC in cation-adjusted MHB-Ca2+, growth inhibition per EUCAST reading; details: PB0905, 16 h
T7 construct: PB0905
Protocol: as §1

[8] = tested on: T8, Staphylococcus aureus PB0113; parameters: Broth microdilution MIC in cation-adjusted MHB-Ca2+, growth inhibition per EUCAST reading; details: PB0113, 16 h
T8 construct: PB0113
Protocol: as §1

[9] = tested on: T9, Staphylococcus aureus PB0603; parameters: species or system Staphylococcus aureus clinical blood isolates and ATCC 29213; Broth microdilution MIC in cation-adjusted Mueller-Hinton broth with 50 ug/mL CaCl2, EUCAST reading, 37 C; details: PB0603, 16 h, replicate MIC, MHB + 50 ug/mL CaCl2
T9 construct: PB0603
Protocol: (§2) MICs were measured in cation-adjusted Mueller-Hinton broth (MHB) supplemented with 50 μg/mL CaCl2 (MHB-Ca^2+) via broth microdilution in 96-well plates with an inoculum of ∼5 × 10^5 CFU per mL. Antibiotic test concentrations ranged from 0.0625 μg/mL to 32 μg/mL by 2-fold dilutions. Plates were incubated at 37°C for 16 h without shaking, and results were interpreted in accordance with European Committee on Antimicrobial Susceptibility Testing reading guidelines ([72]). S. aureus ATCC 29213 was used as a quality-control strain.

[10] = tested on: T10, Staphylococcus aureus PB0207; parameters: species or system Staphylococcus aureus clinical blood isolates and ATCC 29213; Broth microdilution MIC in cation-adjusted Mueller-Hinton broth with 50 ug/mL CaCl2, EUCAST reading, 37 C; details: PB0207, 16 h, replicate MIC, MHB + 50 ug/mL CaCl2
T10 construct: PB0207
Protocol: as §2

[11] = tested on: T11, S. aureus ATCC 29213; parameters: species or system Staphylococcus aureus clinical blood isolates and ATCC 29213; Broth microdilution MIC in cation-adjusted Mueller-Hinton broth with 50 ug/mL CaCl2, EUCAST reading, 37 C; details: Staphylococcus aureus, ATCC29213, 16 h; replicate MIC, MHB + 50 ug/mL CaCl2
T11 construct: ATCC 29213
Protocol: as §2

[12] = tested on: T12, Staphylococcus aureus PB0208; parameters: species or system Staphylococcus aureus clinical blood isolates and ATCC 29213; Broth microdilution MIC in cation-adjusted Mueller-Hinton broth with 50 ug/mL CaCl2, EUCAST reading, 37 C; details: PB0208, 16 h, replicate MIC, MHB + 50 ug/mL CaCl2
T12 construct: PB0208
Protocol: as §2

[13] = tested on: T13, Staphylococcus aureus PB1803; parameters: species or system Staphylococcus aureus clinical blood isolates and ATCC 29213; Broth microdilution MIC in cation-adjusted Mueller-Hinton broth with 50 ug/mL CaCl2, EUCAST reading, 37 C; details: PB1803, 16 h, replicate MIC, MHB + 50 ug/mL CaCl2
T13 construct: PB1803
Protocol: as §2

[14] = tested on: T14, Staphylococcus aureus PB0701; parameters: species or system Staphylococcus aureus clinical blood isolates and ATCC 29213; Broth microdilution MIC in cation-adjusted Mueller-Hinton broth with 50 ug/mL CaCl2, EUCAST reading, 37 C; details: PB0701, 16 h, replicate MIC, MHB + 50 ug/mL CaCl2
T14 construct: PB0701
Protocol: as §2

SMILES | MIC ([1]; replicate 1) [µg/mL] | MIC ([1]; replicate 2) [µg/mL] | MIC ([2]; replicate 1) [µg/mL] | MIC ([2]; replicate 2) [µg/mL] | MIC ([3]; replicate 1) [µg/mL] | MIC ([3]; replicate 2) [µg/mL] | MIC ([4]; replicate 1) [µg/mL] | MIC ([4]; replicate 2) [µg/mL] | MIC ([5]; replicate 1) [µg/mL] | MIC ([5]; replicate 2) [µg/mL] | MIC ([6]; replicate 1) [µg/mL] | MIC ([6]; replicate 2) [µg/mL] | MIC ([7]; replicate 1) [µg/mL] | MIC ([7]; replicate 2) [µg/mL] | MIC ([8]; replicate 1) [µg/mL] | MIC ([8]; replicate 2) [µg/mL] | MIC [9] | MIC [10] | MIC [11] [µg/mL] | MIC [12] [µg/mL] | further results
CCO/N=C(\C(=O)N[C@@H]1C(=O)N2C(C(=O)[O-])=C(Sc3nc(-c4cc[n+](C)cc4)cs3)CS[C@H]12)c1nsc(N)n1 [Ceftaroline] | 0.5 | 0.5 | 0.5 | 0.5 | 0.5 | 0.5 | 0.5 | 0.5 | 0.5 | 0.5 | 0.25 | 0.25 | 0.5 | 0.5 | 0.5 | 0.5 | 0.25 µg/mL | 0.5 µg/mL | 0.25 | 0.5 | MIC [13]: 0.5 µg/mL; MIC [14]: 0.25 µg/mL
CCCCCCCCCC(=O)N[C@@H](Cc1c[nH]c2ccccc12)C(=O)N[C@H](CC(N)=O)C(=O)N[C@@H](CC(=O)O)C(=O)N[C@@H]1C(=O)NCC(=O)N[C@@H](CCCN)C(=O)N[C@@H](CC(=O)O)C(=O)N[C@H](C)C(=O)N[C@@H](CC(=O)O)C(=O)NCC(=O)N[C@H](CO)C(=O)N[C@@H]([C@H](C)CC(=O)O)C(=O)N[C@@H](CC(=O)c2ccccc2N)C(=O)O[C@@H]1C [Daptomycin] | 1 | 2 | 2 | 2 | 2 | 2 | 1 | 1 | 2 | 2 | 1 | 1 | 2 | 2 | 1 | 1 | 2 µg/mL | 1 µg/mL | 1 | 1 | MIC [13]: 2 µg/mL; MIC [14]: 1 µg/mL and 2 µg/mL
CC(=O)NC[C@H]1CN(c2ccc(N3CCOCC3)c(F)c2)C(=O)O1 [Linezolid] | 4 | 4 | 4 | 4 | 4 | 4 | 4 | 4 | 4 | 4 | 4 | 4 | 4 | 4 | 4 | 4 | 4 µg/mL | 4 µg/mL | 4 | 4 | MIC [13]: 4 µg/mL; MIC [14]: 4 µg/mL
CN[C@H](CC(C)C)C(=O)N[C@H]1C(=O)N[C@@H](CC(N)=O)C(=O)N[C@H]2C(=O)N[C@H]3C(=O)N[C@H](C(=O)N[C@H](C(=O)O)c4cc(O)cc(O)c4-c4cc3ccc4O)[C@H](O)c3ccc(c(Cl)c3)Oc3cc2cc(c3O[C@@H]2O[C@H](CO)[C@@H](O)[C@H](O)[C@H]2O[C@H]2C[C@](C)(N)[C@H](O)[C@H](C)O2)Oc2ccc(cc2Cl)[C@H]1O [Vancomycin] | 2 | 2 | 2 | 2 | 2 | 2 | 2 | 2 | 2 | 2 | 2 | 2 | 2 | 2 | 2 | 2 | 4 µg/mL and 2 µg/mL | 2 µg/mL and 1 µg/mL | 2 | 4 | MIC [13]: 2 µg/mL; MIC [14]: 2 µg/mL

— publication PMC9022596, “Convergent Evolution of Antibiotic Tolerance in Patients with Persistent Methicillin-Resistant Staphylococcus aureus Bacteremia” (Infection and Immunity, 2022)
